Laboratory results reported in patent US20250282820A1, “PEPTIDE COMPLEX HAVING TRKB BINDING ACTIVITY” (PEPTIDREAM INC, priority 2022, published 2025).
Where a SMILES comes first, the peptide text is derived from it. Bridges are numbered along the chain shown (N, C = ends). Roman numbers before positions name the chains, in order. Where no end group is shown, it is not given here. [ ]: non-standard residue; d: D form. PEG8 = NCCOCCOCCOCCOCCOCCOCCOCCOCCC(=O)O; 3Pal = N[C@@H](Cc1cccnc1)C(=O)O

Tests used:
[1] = biological target: T1, TrkB (CellSensor TrkB-NFAT-bla CHO-K1 Cell) (Homo sapiens, UniProt Q16620); test: NFAT transcriptional reporter assay for TrkB agonist activity; assay type: cell-based; conditions: class = peptide concentration giving 50% or more activity; BDNF maximum signal = 100%, no stimulation = 0%; 5 hours culture
T1 construct: host or cells: CHO-K1 (CellSensor TrkB-NFAT-bla CHO-K1)
T1 sequence (Q16620 32-822): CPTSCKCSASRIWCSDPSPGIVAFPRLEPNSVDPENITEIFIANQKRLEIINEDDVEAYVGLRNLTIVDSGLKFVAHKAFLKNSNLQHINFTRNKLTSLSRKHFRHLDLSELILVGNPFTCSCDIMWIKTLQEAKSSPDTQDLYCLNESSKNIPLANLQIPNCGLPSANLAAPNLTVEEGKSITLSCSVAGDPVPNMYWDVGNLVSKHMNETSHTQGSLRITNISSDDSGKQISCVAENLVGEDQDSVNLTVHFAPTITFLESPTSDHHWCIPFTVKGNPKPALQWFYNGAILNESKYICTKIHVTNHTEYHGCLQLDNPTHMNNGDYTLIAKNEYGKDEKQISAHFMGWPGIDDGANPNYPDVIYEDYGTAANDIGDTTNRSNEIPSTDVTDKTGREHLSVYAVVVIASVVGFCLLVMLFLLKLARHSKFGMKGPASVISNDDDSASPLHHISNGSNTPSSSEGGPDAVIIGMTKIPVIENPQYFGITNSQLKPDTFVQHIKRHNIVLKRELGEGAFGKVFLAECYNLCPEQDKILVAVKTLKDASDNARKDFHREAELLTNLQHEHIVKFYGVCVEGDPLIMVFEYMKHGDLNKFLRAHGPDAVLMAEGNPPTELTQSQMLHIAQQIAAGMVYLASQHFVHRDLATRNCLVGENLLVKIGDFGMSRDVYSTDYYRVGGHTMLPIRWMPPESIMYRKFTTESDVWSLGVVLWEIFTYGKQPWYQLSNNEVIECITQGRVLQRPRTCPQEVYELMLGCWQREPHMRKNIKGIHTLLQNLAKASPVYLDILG
Procedure, shortened: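 CHO-K1 TrkB-NFAT-bla cells, 12,500 per well, treated overnight-seeded with peptide or BDNF for 5 h, then CCF4-AM substrate 2 h in the dark; 460/535 nm emission ratio. Activity scaled to maximal BDNF signal (100%) and unstimulated (0%); grades A/B/C mean ≥50% activity at 1, 10 or 100 nM.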

[2] = biological target: TrkB (Homo sapiens, UniProt Q16620); test: PathHunter eXpress TrkB Functional Assay (phosphorylation of TrkB); assay type: cell-based; conditions: maximum signal induced by BDNF = 100%; stimulation for 3 hours
TrkB, sequence (Q16620 32-822): as above
Procedure, shortened: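 PathHunter TrkB cells, cultured 48 h, were stimulated 3 h with peptide or BDNF, then detection reagent added for 60 min at room temperature; luminescence read. Activity (%) scaled from unstimulated (0%) to maximal BDNF signal (100%); peptides tested over 0.006104-100 nM, 0.032-100 nM or 0.01-10 nM ranges.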

[3] = biological target: T1, TrkB (CellSensor TrkB-NFAT-bla CHO-K1 Cell); test: pERK1/2 AlphaLISA assay (phosphorylation of ERK) for TrkB agonist activity; assay type: cell-based; conditions: class = peptide concentration giving 50% or more activity; BDNF maximum signal = 100%, no stimulation = 0%; 15 minutes of stimulation
Procedure, shortened: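 TrkB-NFAT-bla CHO-K1 cells were starved 4 h in 0.1% BSA medium and then stimulated 15 min with peptide or BDNF; p-ERK1/2 (Thr202/Tyr204) in the lysate was read by AlphaLISA SureFire. Activity % was scaled to the BDNF maximum (100%) and no stimulation (0%); A = ≥50% at 1 nM, B = ≥50% at 10 nM; curves were 8 points, 4-fold dilutions from 100 nM.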

[4] = biological target: TrkB of the cells of the PathHunter eXpress TrkB Functional Assay kit (DiscoverX) (UniProt Q16620 32-822, limits assumed); test: cell-based or functional assay
TrkB of the cells of the PathHunter eXpress TrkB Functional Assay kit (DiscoverX), sequence (Q16620 32-822 limits assumed): as the sequence (Q16620 32-822) above

[5] = biological target: Recombinant Human TrkB Fc Chimera Protein (R&D Systems) (human) (UniProt Q16620); test: SPR (Biacore T200), TrkB-Fc captured on anti-human IgG (Fc) antibody, peptide complex as analyte, single cycle kinetics
Recombinant Human TrkB Fc Chimera Protein (R&D Systems) (human), sequence (Q16620 32-430, change not shown): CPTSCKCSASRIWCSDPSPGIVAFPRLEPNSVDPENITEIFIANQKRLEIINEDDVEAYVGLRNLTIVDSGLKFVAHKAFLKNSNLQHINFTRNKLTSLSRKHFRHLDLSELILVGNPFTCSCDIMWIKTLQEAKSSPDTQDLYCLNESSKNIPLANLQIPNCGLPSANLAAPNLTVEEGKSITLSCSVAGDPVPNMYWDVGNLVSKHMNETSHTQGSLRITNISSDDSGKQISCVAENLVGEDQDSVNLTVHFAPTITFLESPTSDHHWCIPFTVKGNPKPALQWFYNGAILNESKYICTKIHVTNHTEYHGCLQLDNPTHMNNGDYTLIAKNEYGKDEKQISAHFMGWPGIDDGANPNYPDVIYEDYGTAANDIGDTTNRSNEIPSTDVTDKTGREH

Molecule | NFAT Assay Results [1] | Emax [2] | pERK (aLISA) Assay Results [3] | PathHunter EC50 [4] | PathHunter Emax (BDNF maximum = 100%) [4] | koff [5]
CC(C)C[C@@H]1NC(=O)[C@H](Cc2ccccc2)NC(=O)CSC[C@@H](C(=O)NCC(=O)NCCOCCOCCOCCOCCOCCOCCOCCOCCC(=O)NCCCC[C@H](NC(=O)CCOCCOCCOCCOCCOCCOCCOCCOCCNC(=O)CNC(=O)[C@@H]2CSCC(=O)N[C@@H](Cc3ccccc3)C(=O)N[C@@H](CC(C)C)C(=O)N3CCC[C@H]3C(=O)N[C@@H](Cc3ccc(O)cc3)C(=O)N[C@@H](Cc3cccnc3)C(=O)N[C@@H](Cc3c[nH]c4ccccc34)C(=O)N3CCC[C@H]3C(=O)N[C@@H]([C@@H](C)O)C(=O)N[C@@H](Cc3ccc(O)cc3)C(=O)N[C@@H](CO)C(=O)N[C@@H](CCC(=O)O)C(=O)N[C@@H](Cc3cccnc3)C(=O)N[C@@H](C(C)C)C(=O)N[C@@H](CCC(=O)O)C(=O)N2)C(N)=O)NC(=O)[C@H](CCC(=O)O)NC(=O)[C@H](C(C)C)NC(=O)[C@H](Cc2cccnc2)NC(=O)[C@H](CCC(=O)O)NC(=O)[C@H](CO)NC(=O)[C@H](Cc2ccc(O)cc2)NC(=O)[C@H]([C@@H](C)O)NC(=O)[C@@H]2CCCN2C(=O)[C@H](Cc2c[nH]c3ccccc23)NC(=O)[C@H](Cc2cccnc2)NC(=O)[C@H](Cc2ccc(O)cc2)NC(=O)[C@@H]2CCCN2C1=O [compound 14] (I: {CH2CO}-FLPY[3Pal]WPTYSE[3Pal]VECG[PEG8]K-NH2 / II: {CH2CO}-FLPY[3Pal]WPTYSE[3Pal]VECG[PEG8]; amide I:18-II:C (inferred); thioether I:N-I:15, II:N-II:15 (inferred)) | A (The peptide with 50% or more activity when 1 nM of the peptide was added was evaluated as A) | 86% | A (The peptide with 50% or more activity when 1 nM of the peptide was added was evaluated as A) |  |  | 
CC(C)[C@@H]1NC(=O)[C@H](Cc2cccnc2)NC(=O)[C@H](CCC(=O)O)NC(=O)[C@H](CO)NC(=O)[C@H](Cc2ccc(O)cc2)NC(=O)[C@H]([C@@H](C)O)NC(=O)[C@@H]2CCCN2C(=O)[C@H](Cc2c[nH]c3ccccc23)NC(=O)[C@H](Cc2cccnc2)NC(=O)[C@H](Cc2ccc(O)cc2)NC(=O)[C@@H]2CCCN2C(=O)[C@H](CO)NC(=O)[C@H](Cc2ccccc2)NC(=O)CSC[C@@H](C(=O)NCC(=O)NCCOCCOCCOCCOCCOCCOCCOCCOCCC(=O)NCCCC[C@H](NC(=O)CCOCCOCCOCCOCCOCCOCCOCCOCCNC(=O)CNC(=O)[C@@H]2CSCC(=O)N[C@@H](Cc3ccccc3)C(=O)N[C@@H](CO)C(=O)N3CCC[C@H]3C(=O)N[C@@H](Cc3ccc(O)cc3)C(=O)N[C@@H](Cc3cccnc3)C(=O)N[C@@H](Cc3c[nH]c4ccccc34)C(=O)N3CCC[C@H]3C(=O)N[C@@H]([C@@H](C)O)C(=O)N[C@@H](Cc3ccc(O)cc3)C(=O)N[C@@H](CO)C(=O)N[C@@H](CCC(=O)O)C(=O)N[C@@H](Cc3cccnc3)C(=O)N[C@@H](C(C)C)C(=O)N[C@@H](CCC(=O)O)C(=O)N2)C(N)=O)NC(=O)[C@H](CCC(=O)O)NC1=O [compound 15] (I: {CH2CO}-FSPY[3Pal]WPTYSE[3Pal]VECG[PEG8]K-NH2 / II: {CH2CO}-FSPY[3Pal]WPTYSE[3Pal]VECG[PEG8]; amide I:18-II:C (inferred); thioether I:N-I:15, II:N-II:15 (inferred)) | A (The peptide with 50% or more activity when 1 nM of the peptide was added was evaluated as A) | 104% | A (The peptide with 50% or more activity when 1 nM of the peptide was added was evaluated as A) |  |  | 
{CH2CO}-FSPY[3Pal]WPTYSE[3Pal]VECG (thioether N-15; also: homodimer via linker No. 7 (K-cPEG13c-K) at Gly16) [peptide complex, dimer structure No. 48 (peptide sequence No. 15 + linker structure No. 7)] |  |  |  | 0.421 nM | 102% | < 1e-05 s⁻¹
{CH2CO}-FEPY[3Pal]WPTYSE[3Pal]VECG (thioether N-15; also: homodimer via linker No. 7 (K-cPEG13c-K) at Gly16) [peptide complex, dimer structure No. 56 (peptide sequence No. 17 + linker structure No. 7)] |  |  |  | 0.358 nM | 93% | < 1e-05 s⁻¹
